The results in this text go back to ChEMBL document CHEMBL1150615, “Swinhoeiamide A, a new highly active calyculin derivative from the marine sponge Theonella swinhoei” (2002).

Assay type in all cases: functional
The subject of assay [1] is Spodoptera littoralis. Nature of the assay: Insecticidal activity against Spodoptera littoralis larvae dosed into hemolymph injection measured per 1000 mg of larval body weight measured after 48 hrs.
The next assay deals with Aspergillus fumigatus. Nature of the assay: Antifungal activity against Aspergillus fumigatus by serial dilution assay.
Assay [2] deals with Spodoptera littoralis. Nature of the assay: Insecticidal activity against Spodoptera littoralis larvae after 5 days by topical contact assay.
A further assay concerns Candida albicans. Nature of the assay: Antifungal activity against Candida albicans by serial dilution assay.
Assay [3] has as its system Spodoptera littoralis. Nature of the assay: Insecticidal activity against Spodoptera littoralis larvae after 6 days by chronic feeding assay. As to conditions: 144 h.
For a further assay, the system named is Cladosporium cucumerinum. Nature of the assay: Antifungal activity against Cladosporium cucumerinum at 25 nmol by bioautographic method.

In brackets after ≈: the same amount, converted by molar mass.

In turn, `COC[C@@H]([C@H](O)[C@H](O)C(=O)NCC[C@H](C)c1nc(/C=C/C[C@@H]2O[C@]3(C[C@@H](O)[C@@H]2C)O[C@H]([C@H](C[C@H](O)[C@H](C)[C@H](O)[C@H](C)/C=C(C)/C(C)=C/C=C/C(C)=C\C#N)OC)[C@H](OP(=O)(O)O)C3(C)C)co1)N(C)C` [CALYCULIN A] showed an LD50 with Spodoptera littoralis [1] of 1 µg.

As to `CO[C@H]1C[C@]2(O[C@H]([C@@H](C[C@H](O)[C@H](C)[C@H](O)[C@H](C)/C=C(C)/C(C)=C/CC/C(C)=C\C(N)=O)OC)[C@H](OP(=O)(O)O)C2(C)C)O[C@H](C/C=C/c2coc(C)n2)[C@H]1C` [SWINHOEIAMIDE A], the results for the MIC in the assay on Aspergillus fumigatus and in the assay on Candida albicans were 1 µg/mL (≈ 1.25 µM) and 1.2 µg/mL (≈ 1.51 µM), respectively. Further, the LD50 with Spodoptera littoralis [2] is 10 µg; in the assay on Spodoptera littoralis [1] it was 0.98 µg. In the assay with Spodoptera littoralis [3], this molecule registered a 50% lethal concentration (LC50) of 2.98 µg/mL (≈ 3.74 µM). The “inhibition zone (IZ)” value in the assay with Cladosporium cucumerinum is 14 mm.

Broadly, the MIC is the lowest concentration that inhibits growth of the organism. High values mean weaker potency, low ones greater potency. The term LC50 denotes the concentration lethal to half of the exposed cells or organisms. Read a low LC50 as a more lethal substance.
